US20110245759A1, “Methods of Treating An Infection with Nitric Oxide” (NITRIC BIOTHERAPEUTICS, INC., priority 2008, published 2011)

What was measured:
mild tinea pedis = assay: Single-site clinical trial of gaseous nitric oxide in mild tinea pedis (Example 10); format: in vivo, human; conditions: 1% gaseous nitric oxide in nitrogen, 10 patients, FIG. 14
Protocol: To evaluate the effectiveness of gaseous nitric oxide treatment against mild tinea pedis, a single-site clinical trial treating 10 human patients with mild tinea pedis was conducted. […] The foot of each patient was fitted with a flexible, plastic boot-like enclosure that was sealed at the mid-calf (see, for example, FIG. 19) and the foot was bathed with 1% gaseous nitric oxide in nitrogen at a fixed flow of 1 liter per minute for a total of 2 hours divided over 5 treatment days. Gas entered the boot-like enclosure near the toe region with passive diffusion from the enclosure into a well-ventilated examination room. On day 1, patients were treated for 10 minutes. On day 2, patients were treated for 20 minutes. On each of days 3, 4 and 5, patients were treated for 30 minutes. On days 0, 1, 2, 3, 4, 5 and 12, each patient was assessed by a podiatrist blinded to the patient's treatment group and given a clinical symptom severity score ranging from 0 to 64. The clinical symptom severity score is determined by scoring each of 8 categories (i.e., fissures/cracks, yellow crusting (ruptured blisters), maceration (white moist skin), pruritus (itching), scaling, erythema, vesicles/blisters and burning) on an 8-point scale (i.e., 0=absent, 1-2 mild, 3-5 moderate and 6-8 severe). […]

[1] = system: Human head lice, permethrin(kdr)-resistant SF-HL strain; assay: Gas chamber bioassay on human head louse females and eggs (Example 13); conditions: for lice killed: adult female lice, 1 liter/minute
Protocol: The ability of nitric oxide or nitric oxide+oxygen to kill human head louse females and eggs was evaluated using gas chamber bioassay.
Human head lice from the permethrin(kdr)-resistant SF-HL strain were used in a nitric oxide gas bioassay to determine louse mortality at different exposure intervals. Adult female lice and aged eggs (6-8 day old) were used in all bioassays. The lice or eggs were placed in the bottom of a sterile disposable Petri dishes (60×20 mm) and left uncovered. The dish with lice or eggs was placed inside a polyethylene bag and the bag was taped shut with HY-TAPE® (HY-TAPE Intl., Patterson, N.Y.) to seal the chamber and to minimize the volume of gas inside the chamber. The treatments used were either nitric oxide, in combination with oxygen mixed in equal parts at a final concentration of 10,000 ppm nitric oxide and 20% oxygen, or a treatment with nitric oxide alone at 10,000 ppm in nitrogen both with a flow rate of 1 liter/minute. The gas tank was connected to the chamber with PVC tubing and plastic connectors. The nitric oxide, in combination with oxygen, was mixed in the tubing before the chamber inlet. The chamber outlet was also connected with PVC tubing and fed to a NO scrubber to trap the NO gas leaving the chamber. Additionally, tufts of human hair (blond and brown) were placed inside the chamber for a 30 minute exposure interval to nitric oxide+oxygen to assess discoloration of the hair for cosmetic purposes.

[2] = system: coagulase-negative Staphylococci (CNS); assay: Full-thickness porcine wounds infected with bacteria, treated with nitric oxide with or without oxygen (Example 1); format: in vivo, pig
[3] = mixture of 1000 ppm nitric oxide and 21% oxygen; cited from earlier work
[4] = system: moderate-severe interdigital and/or moccasin-type tinea pedis; assay: Single-site placebo-controlled clinical trial of gaseous nitric oxide in moderate-severe tinea pedis (Example 11); format: in vivo, human; conditions: 1% nitric oxide
Protocol: To evaluate the effectiveness of gaseous nitric oxide treatment against moderate-severe interdigital and/or moccasin-type tinea pedis, a single-site, placebo-controlled clinical trial treating≧50 evaluable human patients with moderate-severe interdigital tinea pedis was conducted. […] The foot of each patient was fitted with a flexible, plastic boot-like enclosure that was sealed at the mid-calf (see, for example, FIG. 19) and the foot was bathed with 1% gaseous nitric oxide in nitrogen, or 1% gaseous nitric oxide and 20% oxygen in nitrogen, or placebo (i.e., nitrogen) at a fixed flow of 1 liter per minute for 40 minutes each day for each of three consecutive days, Gas entered the boot-like enclosure near the toe region with passive diffusion from the enclosure into a well-ventilated examination room. Each foot of each patient was fitted with an air-tight, ankle-high covering […] On days 1, 3 and 12, each patient was assessed by a podiatrist blinded to the patient's treatment group and given a clinical symptom severity score ranging from 0 to 64.

[5] = 30 minute exposure interval, 10,000 ppm nitric oxide

[N]=O [nitric oxide]
average clinical symptom severity score (0 to 64) during treatment (mild tinea pedis; 1 liter per minute, 2 hours over 5 treatment days): began to decrease on the second day of treatment and continued to decrease until the fifth day of treatment
average clinical symptom severity score on day 12, seven days after the last treatment (mild tinea pedis): remained as low as it was on day 5
ovicidal activity on aged eggs (6-8 days old) [1, 5]: not ovicidal
lice killed ([1]; 10 minute exposure interval, 10,000 ppm nitric oxide): did not kill any
lice killed [1, 5]: did not kill any
egg hatchability ([1]; aged eggs (6-8 days old), 30 minute exposure interval, compared with untreated control eggs): not different from untreated control eggs
amount of total bacteria in biopsies taken from the center of the wounds ([2]; 10,000 ppm nitric oxide, p<0.05, FIG. 10): significant decrease
average decrease of total bacteria in center biopsies, compared with nitric oxide in combination with oxygen ([2]; pig, in vivo): smaller decrease
time for half of the nitric oxide to react to become nitric dioxide [3]: about 3.5 minutes
clinical symptom severity score on day 3 compared with day 1 ([4]; 40 minutes each day for three days, all patients treated): lower on day 3 than on day 1
clinical symptom severity score on day 12 compared with day 3 ([4]; 40 minutes each day for three days, most patients treated): lower clinical symptom severity score on day 12 than on day 3
patients with interdigital tinea who reached the primary clinical endpoint score of ≦8 ([4]; of the 13 patients with interdigital tinea): 8 patients
